Read-outs that look alike come from different tables or passages of the source.

Assay [1] concerns male ICR mice. Nature of the assay: Scopolamine-induced cognitive impairment model: passive avoidance test (PAT). The note with it: for percent recovery of memory in passive avoidance test (normal group = 100, scopolamine control = 0) at 50 mg/kg: Mus musculus, po, 168 h, read-out: in vivo(effect) PAT (%); for in vivo PAT: time staying in bright room (step-through latency), scopolamine 1 mg/kg i.p., compounds 50 mg/kg oral for 7 days, donepezil 5 mg/kg (avg.); for cognitive function recovery compared to normal animals, passive avoidance test (effect %): compounds 50 mg/kg, donepezil 5 mg/kg, orally for 7 days, scopolamine 1 mg/kg intraperitoneal. The class given is in vivo. The source says: (§1) A memory loss rodent animal model induced by scopolamine intraperitoneal administration is used, and an evaluation method for memory uses a Y-maze test and a passive avoidance test (PAT). Scopolamine is a representative experimental model showing an impairment of cognitive function similar to AD patients by blocking neurotransmitters when administered to an animal as an antagonist of a muscarinic acetylcholine receptor, and as a cognitive function evaluation technique, a Y-maze test and a passive avoidance experiment, which are general and representative methods, were used, and in order to objectify the efficacy levels of the compounds, a group administered with donepezil (Aricept, Eisa) as a positive control material was separately provided to compare the efficacy levels of the compounds.
(§2) In order to evaluate cognitive function, 5-week-old male ICR mice were used, the compounds to be evaluated were prepared at a dose of 50 mg/kg/ml and repeatedly orally administered at a predetermined time for 7 days, and the positive control material was carried out at 5 mg/kg/ml. After the last administration, after 30 minutes of intraperitoneal administration of 1 mg/kg/2 ml of scopolamine, a Y-maze test and a passive avoidance test, which are cognitive function evaluations, were performed.
In addition, the passive avoidance test was conducted using an avoidance learning box (Jeondo B&P, Korea, Seoul), and the avoidance learning box is divided into a dark room and a bright room, and when a laboratory animal is put into a bright room, the subject goes beyond the dark room. At the moment, an electric shock of 0.5 mA is applied for 5 seconds, and when the next day experimental animal is put back into a bright room, an electric shock in a dark room is memorized and stay in a bright room. In this case, a step-through latency is measured to evaluate memory. The efficacy of the compounds of the present invention against the normal group and the control group in the Y-maze test and the passive avoidance test was described in the following Table 3 (Scopolamine-induced cognitive impairment model result).

Assay [2] has as its system male ICR mice. Put plainly: Scopolamine-induced cognitive impairment model: Y-maze test. The class given is in vivo. The settings on record: for percent recovery of cognitive function (Y-maze) at 50 mg/kg: Mus musculus, po, 168 h; for in vivo Y-maze (%): spontaneous alternation, scopolamine 1 mg/kg i.p., compounds 50 mg/kg oral for 7 days, donepezil 5 mg/kg (avg.).
Description: as §1, §2
The Y-maze test is a method for evaluating the ability to sequentially act as an experiment for measuring short-term memory. The measurement equipment is composed of three branches, each branch has a length of 42 cm, a width of 3 cm, and a height of 12 cm, and an angle at which three branches are folded is 120°. Experimental animals are put into each branch for 8 minutes, and the number of times of entering the branches to the tail of the experimental animal and the case of being sequentially received in each branch are scored (actual alternation). The alternation behavior is defined as entering not to overlap all three, and is calculated by the following equation. [formula]

Assay [3] deals with HRE/Luc/HEK293 cells. Nature of the assay: HRE (Hypoxia Response Element) luciferase assay. Type of assay: cell-based, human. The settings on record: for fold induction at 10 µM / fold induction at 100 µM: Homo sapiens; for HRE assay: increase in HRE expression levels by the test substance relative to the vehicle in HRE/Luc/HEK293 cells. The method, boiled down: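 HRE-luciferase HEK293 cells in MEM/10% FBS pretreated with compound 6 h, then held under hypoxia (0.1% O2) 18 h; luminescence read after lysis. Scored as fold increase over vehicle, with twofold threshold at 100, 10 or 1 µM.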

The mark [4] stands for this setting: read-out: cognitive function recovery compared to normal animals, Y-maze experiment (effect %).
Setting [5] is: read-out: in vivo(effect) Y-maze (%).
[6] abbreviates: HEK293, fold increase of HRE expression, hypoxic conditions (O2 0.1%) 18 hours, Table 2, read-out: HRE-increasing 10uM.
[7] abbreviates: HEK293, fold increase of HRE expression, hypoxic conditions (O2 0.1%) 18 hours, Table 2, read-out: HRE-increasing 100uM.

With `COc1ccc2cc(Cc3ccc(O[C@H]4OC[C@H](O)[C@H](O)[C@H]4O)cc3)ccc2c1` [Example 20, ((2R,3R,4S,5S)-2-(4-(6-methoxynaphthalen-2-yl)methyl)phenoxy)tetrahydro-2H-pyran-3,4,5-triol], in assay [1], the percent recovery of memory in passive avoidance test (normal group = 100, scopolamine control = 0) at 50 mg/kg was determined as 38% and the “in vivo PAT” value worked out at 142 s. Moreover, in assay [2] (setting [4]), the percent recovery of cognitive function (Y-maze) at 50 mg/kg was not below 50%. Besides, the percent recovery of cognitive function (Y-maze) at 50 mg/kg in assay [2] (setting [5]) came out at 61%. Moreover, in assay [2], the “in vivo Y-maze (%)” value turned out to be 69%. The fold induction at 10 µM in assay [3] (setting [6]) is 1. The fold induction at 100 µM in assay [3] (setting [7]) was found to be 1.1.
In the case of `CC(C)c1ccc(Oc2ccc(O[C@H]3OC[C@H](O)[C@H](O)[C@H]3O)cc2)cc1` [Example 35, (2R,3R,4S,5S)-2-(4-(4-isopropylphenoxy)phenoxy)tetrahydro-2H-pyran-3,4,5-triol], in assay [1], the percent recovery of memory in passive avoidance test (normal group = 100, scopolamine control = 0) at 50 mg/kg is 45% and the “in vivo PAT” value was 141 s. Further, in assay [2] (setting [5]), the percent recovery of cognitive function (Y-maze) at 50 mg/kg was determined as 41%. Also, in assay [2], the “in vivo Y-maze (%)” value was 59%. In addition, the fold induction at 10 µM in assay [3] (setting [6]) was 3.7. Moreover, the fold induction at 100 µM in assay [3] (setting [7]) was less than 1. Further, the HRE expression result in assay [3] (concentration of 10 µM) is on record as “more than threefold”.
As for `COc1cccc(Cc2ccc(O[C@H]3OC[C@H](O)[C@H](O)[C@H]3O)cc2)c1` [Example 15, (2R,3R,4S,5S)-2-(4-(3-methoxybenzyl)phenoxy)tetrahydro-2H-pyran-3,4,5-triol], the percent recovery of memory in passive avoidance test (normal group = 100, scopolamine control = 0) at 50 mg/kg in assay [1] was 30%. Moreover, the “in vivo PAT” value in assay [1] is 142 s. Besides, the values for the percent recovery of cognitive function (Y-maze) at 50 mg/kg in assay [2] (setting [4]) and in assay [2] (setting [5]) were not below 50% and 66%, respectively. Also, the “in vivo Y-maze (%)” value in assay [2] is 66%. For the same compound, the fold induction at 10 µM in assay [3] (setting [6]) was determined as 1.1. In assay [3] (setting [7]), the fold induction at 100 µM was 2.2.
Regarding `CCOc1ccc(C(C)(C)c2ccc(O[C@H]3OC[C@H](O)[C@H](O)[C@H]3O)cc2)cc1` [Example 31, (2R,3R,4S,5S)-2-(4-(2-(4-ethoxyphenyl)propan-2-yl)phenoxy)tetrahydro-2H-pyran-3,4,5-triol], in assay [1], the percent recovery of memory in passive avoidance test (normal group = 100, scopolamine control = 0) at 50 mg/kg turned out to be 65%; the “cognitive function recovery compared to normal animals, passive avoidance test (effect %)” value was not below 50%; the “in vivo PAT” value came out at 204 s. In addition, in assay [2] (setting [4]), the percent recovery of cognitive function (Y-maze) at 50 mg/kg is not below 50%. Further, the percent recovery of cognitive function (Y-maze) at 50 mg/kg in assay [2] (setting [5]) is 71%. The “in vivo Y-maze (%)” value in assay [2] was found to be 68%. For the same compound, in assay [3] (setting [6]), the fold induction at 10 µM worked out at 1.1. Moreover, the fold induction at 100 µM in assay [3] (setting [7]) was determined as 1.6.
For the compound `COc1ccc(C(C)(C)c2ccc(O[C@H]3OC[C@H](O)[C@H](O)[C@H]3O)cc2)cc1` [Example 30, (2R,3R,4S,5S)-2-(4-(2-(4-methoxyphenyl)propan-2-yl)phenoxy)tetrahydro-2H-pyran-3,4,5-triol], in assay [1], the percent recovery of memory in passive avoidance test (normal group = 100, scopolamine control = 0) at 50 mg/kg is 60%; the “cognitive function recovery compared to normal animals, passive avoidance test (effect %)” value was not below 50%; the “in vivo PAT” value was 194 s. Also, the percent recovery of cognitive function (Y-maze) at 50 mg/kg in assay [2] (setting [5]) is 45%. For the same compound, the “in vivo Y-maze (%)” value in assay [2] is 63%. The fold induction at 10 µM in assay [3] (setting [6]) worked out at 1.1. Moreover, the fold induction at 100 µM in assay [3] (setting [7]) came out at 1.4.
In the case of `O[C@@H]1[C@@H](O)[C@@H](Oc2ccc(Cc3ccc(Cl)cc3)cc2)OC[C@@H]1O` [Example 14, (2R,3R,4S,5S)-2-(4-(4-chlorobenzyl)phenoxy)tetrahydro-2H-pyran-3,4,5-triol], in assay [1], the percent recovery of memory in passive avoidance test (normal group = 100, scopolamine control = 0) at 50 mg/kg is 33% and the “in vivo PAT” value turned out to be 129 s. The percent recovery of cognitive function (Y-maze) at 50 mg/kg in assay [2] (setting [5]) amounted to 7%. Moreover, the “in vivo Y-maze (%)” value in assay [2] was 57%. For the same compound, the fold induction at 10 µM in assay [3] (setting [6]) came out at 1.9. The fold induction at 100 µM in assay [3] (setting [7]) turned out to be 2.5. The HRE assay result in assay [3] is on record as “••”.
Turning to `O[C@@H]1[C@@H](O)[C@@H](Oc2ccc(Cc3ccc(F)cc3)cc2)OC[C@@H]1O` [Example 13, (2R,3R,4S,5S)-2-(4-(4-fluorobenzyl)phenoxy)tetrahydro-2H-pyran-3,4,5-triol], in assay [1], the percent recovery of memory in passive avoidance test (normal group = 100, scopolamine control = 0) at 50 mg/kg came to 37% and the “in vivo PAT” value was 149 s. The percent recovery of cognitive function (Y-maze) at 50 mg/kg in assay [2] (setting [5]) is 17%. Further, the “in vivo Y-maze (%)” value in assay [2] amounted to 57%. For the same compound, the fold induction at 10 µM in assay [3] (setting [6]) was found to be 1.4. In addition, the fold induction at 100 µM in assay [3] (setting [7]) is 2.4. For the same compound, in assay [3], the HRE assay result is recorded as “••”.
In the case of `CC(C)c1ccc(Cc2ccc(O[C@H]3OC[C@H](O)[C@H](O)[C@H]3O)c(F)c2)cc1` [Example 41, (2R,3R,4S,5S)-2-(2-fluoro-4-(4-isopropylbenzyl)phenoxy)tetrahydro-2H-pyran-3,4,5-triol], in assay [1], the percent recovery of memory in passive avoidance test (normal group = 100, scopolamine control = 0) at 50 mg/kg stood at 16% and the “in vivo PAT” value is 69.6 s. Also, the percent recovery of cognitive function (Y-maze) at 50 mg/kg in assay [2] (setting [4]) is not below 50%. For the same compound, the percent recovery of cognitive function (Y-maze) at 50 mg/kg in assay [2] (setting [5]) was found to be 54%. For the same compound, the “in vivo Y-maze (%)” value in assay [2] amounted to 59.8%. For the same compound, in assay [3] (HEK293, 18 h, Table 2 (Examples 37-74, 52), read-out: HKt-increasing 10uM), the fold induction at 10 µM worked out at 3. Besides, the fold induction at 100 µM in assay [3] (HEK293, 18 h, Table 2 (Examples 37-74, 52), read-out: HKt-increasing 100uM) is 3.2. In assay [3] (low concentration of 1 µM), the HRE expression result was “more than threefold”.
In the case of `O[C@@H]1[C@@H](O)[C@@H](Oc2ccc(Cc3ccccc3)cc2)OC[C@@H]1O` [Example 1, (2R,3R,4S,5S)-2-(4-benzylphenoxy)tetrahydro-2H-pyran-3,4,5-triol], in assay [1], the percent recovery of memory in passive avoidance test (normal group = 100, scopolamine control = 0) at 50 mg/kg came to 35% and the “in vivo PAT” value was found to be 133 s. Also, the percent recovery of cognitive function (Y-maze) at 50 mg/kg in assay [2] (setting [5]) amounted to 38%. In addition, in assay [2], the “in vivo Y-maze (%)” value was 64%. Besides, the fold induction at 10 µM in assay [3] (setting [6]) was 1.2. The fold induction at 100 µM in assay [3] (setting [7]) is 2.2. The HRE assay entry in assay [3] is “••”.
